Source: patent publication US5576355A, “Diamondoid derivatives for pharmaceutical use” (priority 1993, dated 1996)
“Also recorded” adds a separate entry of the source. Read-outs that look alike come from different tables or passages of the source.

Key:
HIV-1 = assay: Anti-HIV testing under the rigorous conditions of the examples (strain not stated); conditions: high virus load, words
HIV-1/MN [1] = assay: Anti-HIV assay (MTT, protection from cytopathic effect), pre- or post-infection, HIV-1/MN; assay type: cell-based; as to MN Post-Infection: key: ++++: significant and reproducible inhibition of cytopathic effect; +++: significant and reproducible inhibition of cytopathic effect; +: noticeable but minimal protection; ---: no protective effect was observed; --: no protective effect was observed; -: no protection was observed but some changes in the cell culture occurred
HIV-1/MN [2] = assay: Virus neutralization assay (MTT), HIV-1MN; assay type: cell-based; as to MN Neutralization: key: ++++: significant and reproducible inhibition of cytopathic effect; +++: significant and reproducible inhibition of cytopathic effect; +: noticeable but minimal protection; ---: no protective effect was observed; --: no protective effect was observed; -: no protection was observed but some changes in the cell culture occurred
MT-2 cells = assay: MTT dye reduction cytotoxicity assay, 5 days
Protocol: The MT-2 cell line was grown and maintained in RPMI 1640 containing 10% fetal calf serum and antibiotics.
Precisely, when the MT-2 cells were in log phase and 2×10^4 cells were distributed in each well along with separate 100 μl aliquots of diluted test compounds. The test compounds were soluble in ethyl alcohol (EtOH). Ethanol and medium were incubated in some wells with the cells as an ethanol control. A cell control was also included (wells containing only cells and medium). The plates were incubated for 5 days at 37° C. in 5% CO2 and humidified conditions. Cell viability was determined in each well by the MTT assay. The OD570 (optical density at 570 nm) of cells without test compound was taken as 0% killing and was compared to the OD570 of cells with test compound. The toxicity profile for different compounds was then scored. In the MTT dye reduction assay toxicity was indicated as yellow in the wells, with blue color indicating the compound was non-toxic.

HIV-1MN induced syncytia = assay: Syncytia inhibition, HIV-1MN
VP6 primary HIV isolate = assay: Anti-HIV assay (MTT), pre- or post-infection, VP6 isolate; conditions: words
[3] = tested on: AZT resistant strain (AZTR) of HIV-1; assay: Anti-HIV assay (MTT), pre- or post-infection, AZT resistant strain; conditions: words
Influenza Viruses = conditions: cited from earlier work
[4] = HIV-1/MN, virus pre-mixed with compound 1 hour

O=C1C2CC3CC1CC(C2)C3=O [adamantane-2,6-dione]
activity under the rigorous testing conditions (HIV-1): ineffective

O=C1C2CC3CC(C2)CC1C3 [2-adamantanone, reference compound]
activity under the rigorous testing conditions (HIV-1): ineffective

C[N+](C)(C)CCC[N+](C)(C)C1C2CC3C4CC5CC3C1C(C5)C4C2 (stereo not shown) [Compound 3, N-3-diamantyl-N,N,N',N',N'-pentamethyl propane-1,3-bis ammonium diiodide]
MN Post-Infection (HIV-1/MN [1]; HIV-1/MN, post-infection): +++
effect in both pre-infection and post-infection assays (HIV-1/MN [1]; HIV-1MN, words): effective
effect in pre-infection (pretreatment) assay (HIV-1/MN [1]; MN, pre-infection, words): effective
effect in post-infection assay (HIV-1/MN [1]; post-infection, words): effective
MN Neutralization (HIV-1/MN [2]; [4]): +++
effect in neutralization assay (HIV-1/MN [2]; neutralization, words): effective
Toxicity at 5 μg/ml (MT-2 cells): -
Toxicity at 50 μg/ml (MT-2 cells): -
Toxicity at .5 μg/ml (MT-2 cells): -

CC12CC3(C)CC(O)(C1)CC(O)(C2)C3 [Compound 2, 1,3-dihydroxy-5,7-dimethyladamantane]
MN Post-Infection (HIV-1/MN [1]; HIV-1/MN, post-infection): +++
effect in both pre-infection and post-infection assays (HIV-1/MN [1]; HIV-1MN, words): effective
effect in pre-infection (pretreatment) assay (HIV-1/MN [1]; MN, pre-infection, words): effective
effect in post-infection assay (HIV-1/MN [1]; post-infection, words): effective
effect in neutralization assay (HIV-1/MN [2]; neutralization, words): effective
Toxicity at 5 μg/ml (MT-2 cells): -
Toxicity at 50 μg/ml (MT-2 cells): -
Toxicity at .5 μg/ml (MT-2 cells): -

O=C(O)CNC1C2CC3CC(C2)CC1C3 (stereo not shown) [Compound 5, N-2-adamantyl glycine]
MN Pre-Infection (HIV-1/MN [1]; HIV-1/MN, cells pretreated 1 hour): -
MN Post-Infection (HIV-1/MN [1]; HIV-1/MN, post-infection): +++
effect in post-infection assay (HIV-1/MN [1]; post-infection, words): effective
MN Neutralization (HIV-1/MN [2]; [4]): -
Toxicity at 5 μg/ml (MT-2 cells): -
Toxicity at 50 μg/ml (MT-2 cells): -
Toxicity at 500 μg/ml (MT-2 cells): -
Toxicity at .5 μg/ml (MT-2 cells): -

C[N+](C)(C)CC[N+](C)(C)C1C2CC3CC(C2)CC1C3 (stereo not shown) [Compound 4, N-2-adamantyl-N,N,N',N',N'-pentamethyl ethane-1,2-bis ammonium diiodide]
Toxicity at 5 μg/ml (MT-2 cells): -
Toxicity at 50 μg/ml (MT-2 cells): -
Toxicity at 500 μg/ml (MT-2 cells): -
Toxicity at .5 μg/ml (MT-2 cells): -

O=C1C2CC3C4CC5CC3C1C(C5)C4C2 [Compound 6, 3-diamantanone]
MN Post-Infection (HIV-1/MN [1]): ++++
MN Pre-Infection (HIV-1/MN [1]): +++
effect in both pre-infection and post-infection assays (HIV-1/MN [1]): effective; also recorded: active
effect in post-infection assay (HIV-1/MN [1]): effective
effect in pre-infection (pretreatment) assay (HIV-1/MN [1]): effective
MN Neutralization (HIV-1/MN [2]): +++
effect in neutralization assay (HIV-1/MN [2]): effective; also recorded: active
inhibition of HIV-1MN induced syncytia at 10 μg/ml (HIV-1MN induced syncytia; 10 μg/ml, FIG. 2): completely inhibit
Toxicity at 5 μg/ml (MT-2 cells): -
Toxicity at 50 μg/ml (MT-2 cells): -
Toxicity at .5 μg/ml (MT-2 cells): -
inhibition of virus replication, VP6 clinical isolates (VP6 primary HIV isolate; both pre- and post-infection): inhibited virus replication
inhibition of clinical isolates (VP6 primary HIV isolate): shown to inhibit
inhibition of virus replication, AZT resistant strains ([3]; both pre- and post-infection): inhibited virus replication
inhibition of AZT resistant isolates [3]: shown to inhibit

O[C@@H]1[C@@H]2C[C@H]3C[C@@H](C2)C2(OCCO2)[C@@H]1C3 (relative stereo) [Compound 8, 4(e)-hydroxy-2-adamantanone ethylene glycol ketal]
MN Post-Infection (HIV-1/MN [1]): -
effect in pre-infection (pretreatment) assay (HIV-1/MN [1]): effective
effect in neutralization assay (HIV-1/MN [2]): effective
Toxicity at 5 μg/ml (MT-2 cells): -
Toxicity at 50 μg/ml (MT-2 cells): -
Toxicity at .5 μg/ml (MT-2 cells): -

O=C1C2CC3CC(C2)C(=O)C1C3 [Compound 7, 2,4-adamantanedione]
MN Post-Infection (HIV-1/MN [1]; HIV-1/MN, post-infection): -
effect in pre-infection (pretreatment) assay (HIV-1/MN [1]; MN, pre-infection, words): effective; also recorded: inhibited viral cytopathic effect
pretreatment compared with post-infection treatment (HIV-1/MN [1]; words): pretreatment is more effective than post-infection treatment
effect in neutralization assay (HIV-1/MN [2]; neutralization, words): effective
inhibition of syncytia formation (HIV-1MN induced syncytia; concentration not given): substantially eliminate syncytia formation
Toxicity at 5 μg/ml (MT-2 cells): -
Toxicity at 50 μg/ml (MT-2 cells): -
Toxicity at 500 μg/ml (MT-2 cells): -
Toxicity at .5 μg/ml (MT-2 cells): -
inhibition of CPE of HIV, VP6 isolate (VP6 primary HIV isolate; pre-infection): inhibited CPE of HIV
inhibition of clinical isolates (VP6 primary HIV isolate): shown to inhibit
inhibition of CPE of HIV, AZT resistant isolate ([3]; pre-infection): inhibited CPE of HIV
inhibition of AZT resistant isolates [3]: shown to inhibit

OC12CC3(O)CC(O)(C1)CC(O)(C2)C3 [Compound 1, 1,3,5,7-tetrahydroxyadamantane]
MN Post-Infection (HIV-1/MN [1]; HIV-1/MN, post-infection): +++
effect in both pre-infection and post-infection assays (HIV-1/MN [1]; HIV-1MN, words): effective
effect in pre-infection (pretreatment) assay (HIV-1/MN [1]; MN, pre-infection, words): effective
effect in post-infection assay (HIV-1/MN [1]; post-infection, words): effective
effect in neutralization assay (HIV-1/MN [2]; neutralization, words): effective
Toxicity at 5 μg/ml (MT-2 cells): -
Toxicity at 50 μg/ml (MT-2 cells): -
Toxicity at 500 μg/ml (MT-2 cells): -
Toxicity at .5 μg/ml (MT-2 cells): -

O=C1C2CC3CC1CC(O)(C3)C2 [5-hydroxy-2-adamantanone]
activity under the rigorous testing conditions (HIV-1): ineffective

C[N+](C)(C)CCC[N+](C)(C)C1C2CC3CC(C2)CC1C3 (stereo not shown) [N-(2-adamantyl)-N,N,N',N',N'-pentamethyl-propane-1,3-bis ammonium diodide]
activity under the rigorous testing conditions (HIV-1): ineffective

NC12CC3CC(CC(C3)C1)C2 [Amantadine]
concentration at which viral entry into the cell is non-specifically inhibited (Influenza Viruses; altering the pH of the endocytic vesicle): > 0.5 mM
concentration of selective strain-specific inhibition of virus assembly (Influenza Viruses; lower concentration): about 5 μM

O=C1C2CC3C4CC5CC3C(C2=O)C(C5)C14 [diamantane-3,5-dione]
activity under the rigorous testing conditions (HIV-1): ineffective
